Values quoted from earlier work, collected in US9694043B2, “Composition for preventing or treating hearing loss” (UNIVERSITY-INDUSTRY COOPERATION GROUP OF KYUNG HEE …, priority 2011, dated 2017).

Columns and labels:
[1] = system: animal model; settings: high level of NAC
[2] = system: soldiers; settings: 600 U.S. navy soldiers, NAC for 2 weeks during weapons training

CC(=O)N[C@@H](CS)C(=O)O [NAC, N-acetyl cysteine]
Effect on noise-induced hearing loss in animal model [1]: preventive effects on noise-induced hearing loss but limited effects on permanent hearing loss | Permanent hearing loss [2]: decrease in permanent hearing loss
